Measured values: patent US20080207752A1, “Poly (epsilon-caprolactone-co-methylmethacrylate), method for preparing the same using super critical fluid, and method for preparing therapeutic agent for skin diseases such as acne, atopy and athlete's foot comprising the same” (priority 2007, published 2008)

Test: Particle size measured using a particle size analyzer
Type: physicochemical
Settings: before supercritical processing
Procedure: At first, pretreated salicylic acid is 50-100 micron. In Examples, the size of salicylic acid particles prepared in following manners was measured using a particle size analyzer. Spherical nanoparticles of which the particle size is in the range of 50 to 300 nm can be obtained according to the presence of a poly(ε-caprolactone-co-methylmethacrylate) as a biodegradable polymer and operating conditions in the reactor.
As shown in the following Table 1, the present Examples represent the operating conditions of the reactor in the step of formation of a spherical structure. The temperature and the pressure of the reactor must be each above 304.2 K and 73.8 bar. The operating parameters in the reactor are the temperature and the pressure in reactor, the amount of carbon dioxide as a supercritical fluid, and the amount of the mixed solution prepared in the preparation step. In Example 1, the mixed solution contains salicylic acid of 0.0016% by weight alone without a biodegradable polymer. In Example 2 to 8, the solution contains both of salicylic acid of 0.0016% by weight and the poly(ε-caprolactone-co-methylmethacrylate) of 0.0014% by weight as a biodegradable polymer. […] In Examples 1 and 3, the change was measured at 313K and 323K by adjusting the reactor temperature. […]

particle size of pretreated salicylic acid: 50-100 micron
Structure (SMILES): O=C(O)c1ccccc1O [salicylic acid]
